Measured values reported in patent publication US6448289B1, “Method for repelling arthropods” (priority 2000, dated 2002).

Legend:
[1] = test system: yellow fever mosquitoes (Aedes aegypti); assay: Repellency test against yellow fever mosquitoes on treated chick abdomen; format: in vivo; details: dosage 3 g/m^2, ethanol solution on chick abdomen
Description: Fifty adult yellow fever mosquitoes (Aedes aegypti, approximately equal number of female and male) which were about 3 weeks old after emergence were released in a cage (22 cm×22 cm×30 cm, made of stainless steel and nylon gauge).
A chick whose abdominal feathers had been removed with haircutter was fixed on a wood board (7 cm×15 cm) having a hole of 2.5 cm×4 cm so that its abdominal skin was exposed. Next, the ethanol solution (90 μl) prepared according to Production example 1 was treated on the exposed area of the chick. The chick treated the solution on its abdomen was put on the cage, and the treated abdomen was exposed to the cage just after treating and after 3 hours from treating. After 1, 2 and 4 minutes from putting the chick, the number of yellow fever mosquitoes on the abdomen was counted and summed up. The test was repeated twice.
Further, the same procedure was performed using a chick treated ethanol without active ingredient on its abdomen, and the number of yellow fever mosquitoes on the abdomen was counted. […] [formula]
Furthermore, the same procedure was performed using ethanol solution (90 μl) prepared according to Production example 1, provided that DEET was used in place of Compound [A] for comparison.

[2] = test system: German cockroaches (Blattella germanica); assay: Repellency test against German cockroaches with impregnated filter paper triangular pillar; format: in vivo; details: 24 hours later, dosage 833 mg/m^2; for No. of cockroaches (German cockroaches in the triangular pillar): test repeated twice
Description: A triangular pillar (3 cm-equilateral triangle of opening, 6 cm in length) was prepared with filter paper, and the acetone solution (0.9 ml) prepared according to Production example 2 was impregnated with the triangular pillar uniformly and air-dried for 5 to 10 minutes.
In a 650 cc volume plastic cup, said triangular pillar was placed horizontally, German cockroaches (Blattella germanica, 5 males and 5 females) were placed in said plastic cup, covered with nylon gauze, and then observed the number of German cockroaches in the triangular pillar 24 hours later. The test was repeated twice.
Further, the same procedure was performed using a triangular pillar of filter paper impregnated acetone without active ingredient, and the number of German cockroaches in the triangular pillar 24 hours later was counted. […] [formula]
Furthermore, the same procedure was performed using acetone solution prepared according to Production example 2, provided that DEET or MGK874 was used in place of Compound [A] for comparison.

SMILES	No. of mosquitoes (sum of yellow fever mosquitoes on the abdomen of the chick after 1, 2 and 4 minutes) ([1]; After 3 hours)	Repellency (%) ([1]; After 3 hours)	No. of mosquitoes (sum of yellow fever mosquitoes on the abdomen of the chick after 1, 2 and 4 minutes) ([1]; Immediately after treating)	Repellency (%) ([1]; Immediately after treating)	Repellency (%) [2]	No. of cockroaches (German cockroaches in the triangular pillar) [2]
Cc1cc(O)c(C(=O)CCC(C)C)c(=O)o1 [Compound [A], 4-hydroxy-6-methyl-3-(4-methylpentanoyl)-2-pyrone]	0	100%	0	100%	90%	2
CCN(CC)C(=O)c1cccc(C)c1 [DEET, N,N-diethyl-m-toluamide]	3	96.5%	0	100%	0%	20
CCCCCCCCSCCO [MGK874, 2-(octylthio)ethanol]					15%	17
